Test results reported in US11091498B2, “Topoisomerase poisons” (Rutgers, The State University of New Jersey, priority 2016, dated 2021).

System: KBH5.0 (a variant that overexpresses BCRP)
Assay: Test B. Efflux Assay: relative cytotoxicity, parent KB3-1 vs KBH5.0
Format: cell-based
Conditions: relative cytotoxicity between parent KB3-1 and variant KBH5.0 cell lines
Procedure: The ability of a compound described herein to be actively transported can be determined using pharmacological models that are well known in the art, for example, using a model like test B described below.
The cytotoxicity of the representative compounds of the invention were also tested against cell line KB3-1 (parent cell line), KBV-1 (a variant that overexpresses efflux transporter MDR1) and KBH5.0 (a variant that overexpresses BCRP). Differences in the relative cytotoxicity between the parent and variant cell lines may be indicative of a compound that is a substrate for an efflux transporter. […] Accordingly, compounds of the invention may be useful to treat tumors that are resistant to other anticancer agents, including anticancer agents that are susceptible to efflux by BCRP (e.g. anthracyclines, mitoxantrone, topotecan, irinotecan, bisanthrone, doxorubicin, daunorubicin, and epirubin.

With `COc1cc2c(=O)n(CCN(C)C(=O)C3CCN(C)CC3)c3c4cc5c(cc4ncc3c2cc1OC)OCO5` [Example 2] as the molecule, how does the “substrate for efflux transporter BCRP” value read?
Its value is “not a substrate for BCRP”.
